Results published in US9518284B2 (priority 2001, dated 2016).
Read-outs that look alike come from different tables or passages of the source.

System: yeast cells overexpressing WT alpha-synuclein
Assay type: cell-based, Saccharomyces cerevisiae
[1] = preliminary study, concentration not given
[2] = preliminary study, agent at 5 μM

C=CCC(N)C(=O)O (racemic) [DL-C-allylglycine]
ability to alleviate toxicity caused by alpha-synuclein overexpression (preliminary study, agent at 0.025 mg/ml): alleviate toxocity

O=c1cn[nH]c(=O)[nH]1 [6-azauracil]
effect on the growth of yeast cells overexpressing WT alpha-synuclein (agent at 30 μg/ml): negative effect on the growth

C[C@@H](O)CC(=O)O [(R)-(−)-3-hydroxybutirate]
ability to alleviate toxicity caused by alpha-synuclein overexpression [1]: alleviate toxocity

[Ca+2].[Cl-].[Cl-] [CaCl2]
effect on the growth of yeast cells overexpressing WT alpha-synuclein (agent at 0.5 M): negative effect on the growth

[Cl-].[Cl-].[Co+2] [CoCl2]
effect on the growth of yeast cells overexpressing WT alpha-synuclein: negative effect on the growth

Nc1c(/N=N/c2ccc(-c3ccc(/N=N/c4cc(S(=O)(=O)O)c5ccccc5c4N)cc3)cc2)cc(S(=O)(=O)O)c2ccccc12 [Congo Red]
ability to alleviate toxicity caused by alpha-synuclein overexpression [2]: alleviate toxocity

[Cl-].[Cs+] [CsCl]
effect on the growth of yeast cells overexpressing WT alpha-synuclein (agent at 0.1 M): negative effect on the growth

O=S(=O)([O-])[O-].[Cu+2] [CuSo4]
effect on the growth of yeast cells overexpressing WT alpha-synuclein (agent at 2.5 mM): negative effect on the growth
effect on the growth of yeast cells overexpressing WT alpha-synuclein (agent at 5 mM): negative effect on the growth

C[C@]12CC[C@H]3[C@@H](CCC4=CC(=O)CC[C@@]43C)[C@@H]1CC[C@@H]2C(=O)CO [Deoxycorticosterone]
ability to alleviate toxicity caused by alpha-synuclein overexpression [1]: alleviate toxocity

O=S(=O)([O-])[O-].O=S(=O)([O-])[O-].O=S(=O)([O-])[O-].[Fe+3].[Fe+3] [Fe2(SO4)3]
effect on the growth of yeast cells overexpressing WT alpha-synuclein (agent at 8.5 mM): negative effect on the growth

[Cl][Fe][Cl] [FeCl2]
effect on the growth of yeast cells overexpressing WT alpha-synuclein (agent at 10 mM): negative effect on the growth
effect on the growth of yeast cells overexpressing WT alpha-synuclein (agent at 15 mM): negative effect on the growth
effect on the growth of yeast cells overexpressing WT alpha-synuclein (agent at 23 mM): negative effect on the growth
effect on the growth of yeast cells overexpressing WT alpha-synuclein (agent at 50 mM): negative effect on the growth

O=S(=O)([O-])[O-].[Fe+2] [FeSO4]
effect on the growth of yeast cells overexpressing WT alpha-synuclein (agent at 20 mM): negative effect on the growth

Cl.N=C(N)N [GuHCl]
effect on the growth of yeast cells overexpressing WT alpha-synuclein (agent at 20 (unit not given)): negative effect on the growth

CN[C@H]1C[C@@H](N)[C@H](O)[C@@H](O[C@@H]2O[C@H](CO)[C@H](O)[C@@H]3OC4(O[C@H]23)O[C@H]([C@@H](N)CO)[C@H](O)[C@H](O)[C@H]4O)[C@@H]1O (some centres unmarked) [Hygromycin B]
ability to alleviate toxicity caused by alpha-synuclein overexpression (preliminary study, agent at 50 μg/ml): alleviate toxocity

N[C@@H](Cc1ccc(O)c(O)c1)C(=O)O [L-DOPA, L-dihydroxyphenylalanine]
ability to alleviate toxicity caused by alpha-synuclein overexpression [1]: alleviate toxocity

CCSCC[C@H](N)C(=O)O [L-ethionine]
ability to alleviate toxicity caused by alpha-synuclein overexpression (preliminary study, agent at 1 μg/ml): alleviate toxocity

[Cl-].[Cl-].[Mg+2] [MgCl2]
effect on the growth of yeast cells overexpressing WT alpha-synuclein (agent at 0.5 M): negative effect on the growth

O=S(=O)([O-])[O-].[Mg+2] [MgSO4]
effect on the growth of yeast cells overexpressing WT alpha-synuclein (agent at 0.5 M): negative effect on the growth

[Cl-].[Rb+] [RbCl]
effect on the growth of yeast cells overexpressing WT alpha-synuclein (agent at 0.2 M): negative effect on the growth

[Cl-].[Cl-].[Sr+2] [SrCl2]
effect on the growth of yeast cells overexpressing WT alpha-synuclein (agent at 0.5 M): negative effect on the growth

O=C[C@@H](O)[C@H](O)[C@H](O)CO [arabinose]
effect on the growth of yeast cells overexpressing WT alpha-synuclein (agent at 2% in medium): negative effect on the growth

C[C@H]1CCC/C=C/[C@@H]2C[C@H](O)C[C@H]2[C@H](O)/C=C/C(=O)O1 [brefeldin A]
effect on the growth of yeast cells overexpressing WT alpha-synuclein (agent at 100 μg/ml): negative effect on the growth

CC[C@@]1(O)C(=O)OCc2c1cc1n(c2=O)Cc2cc3ccccc3nc2-1 [camptothecin]
effect on the growth of yeast cells overexpressing WT alpha-synuclein (agent at 5 μg/ml): negative effect on the growth
ability to alleviate toxicity caused by alpha-synuclein overexpression (preliminary study, agent at 0.1 μg/ml): alleviate toxocity

O=C(O)CCCc1ccc(N(CCCl)CCCl)cc1 [chlorambucil]
effect on the growth of yeast cells overexpressing WT alpha-synuclein (agent at 3 mM): negative effect on the growth

CCN(CC)CCCC(C)Nc1ccnc2cc(Cl)ccc12 (centres unmarked) [chloroquine]
ability to alleviate toxicity caused by alpha-synuclein overexpression (preliminary study, agent at 4.2 μM): alleviate toxocity

O=C(O)c1cc(/N=N/c2ccc(-c3ccc(/N=N/c4ccc(O)c(C(=O)O)c4)cc3)cc2)ccc1O [chrysamine G]
ability to alleviate toxicity caused by alpha-synuclein overexpression (preliminary study, agent at 1.0 μM): alleviate toxocity

Oc1c(I)cc(Cl)c2cccnc12 [clioquinol]
ability to alleviate toxicity caused by alpha-synuclein overexpression [2]: alleviate toxocity

NC=O [formamide]
effect on the growth of yeast cells overexpressing WT alpha-synuclein (agent at 2% in medium): negative effect on the growth

N[C@@H](CCC(=O)N[C@@H](CS)C(=O)NCC(=O)O)C(=O)O [glutathione]
ability to alleviate toxicity caused by alpha-synuclein overexpression: alleviate toxocity

NC(=O)NO [hydroxyurea]
effect on the growth of yeast cells overexpressing WT alpha-synuclein (agent at 5 mg/ml): negative effect on the growth

CC1=CC(=O)c2ccccc2C1=O [menadione]
effect on the growth of yeast cells overexpressing WT alpha-synuclein (agent at 20-50 μM): negative effect on the growth

C[n+]1ccc(-c2cc[n+](C)cc2)cc1 [paraquat]
effect on the growth of yeast cells overexpressing WT alpha-synuclein (agent at 1 mM): negative effect on the growth

NC[C@@H]1O[C@H](O[C@H]2[C@@H](O)[C@H](O[C@@H]3[C@@H](O)[C@H](N)C[C@H](N)[C@H]3O[C@H]3O[C@H](CO)[C@@H](O)[C@H](O)[C@H]3N)O[C@@H]2CO)[C@H](N)[C@@H](O)[C@@H]1O [paromomycin]
ability to alleviate toxicity caused by alpha-synuclein overexpression (preliminary study, agent at 200 μg/ml): alleviate toxocity

N[C@@H](CO)C(=O)O [serine]
ability to alleviate toxicity caused by alpha-synuclein overexpression (preliminary study, agent at 1 mg/ml): alleviate toxocity

NC(N)=O [urea]
effect on the growth of yeast cells overexpressing WT alpha-synuclein (agent at 1 mg/ml): negative effect on the growth

[O]=[V]([O-])([O-])[O-] [vanadate]
effect on the growth of yeast cells overexpressing WT alpha-synuclein (agent at 0.1 mM): negative effect on the growth
effect on the growth of yeast cells overexpressing WT alpha-synuclein (agent at 1 mM): negative effect on the growth
effect on the growth of yeast cells overexpressing WT alpha-synuclein (agent at 2 mM): negative effect on the growth
effect on the growth of yeast cells overexpressing WT alpha-synuclein (agent at 4 mM): negative effect on the growth
effect on the growth of yeast cells overexpressing WT alpha-synuclein (agent at 7 mM+KCl): negative effect on the growth

bleomycin
effect on the growth of yeast cells overexpressing WT alpha-synuclein (agent at 1 μg/ml): negative effect on the growth

protamine sulphate
ability to alleviate toxicity caused by alpha-synuclein overexpression (preliminary study, agent at 250 μM): alleviate toxocity
